Reference: ChEMBL document CHEMBL3885881, “DrugMatrix”

Species: Rattus norvegicus
Assay: DrugMatrix - Regimen: Daily Repeat
Format: toxicity, organism-based, Sprague-Dawley
Parameters: regimen Daily Repeat, gender Male, age 6-8 weeks
Conditions: in vivo, po, 12 mg/kg, route oral GAVAGE, dose level Low, vehicle .5 % CMC; for ABSOLUTE BASOPHIL / ABSOLUTE EOSINOPHIL / ABSOLUTE LYMPHOCYTE / ABSOLUTE MONOCYTE / ABSOLUTE SEGMENTED NEUTROPHIL / BASOPHIL / EOSINOPHIL / ERYTHROCYTE COUNT / HEMATOCRIT / HEMOGLOBIN / LEUKOCYTE COUNT / LYMPHOCYTE / MEAN CORPUSCULAR HEMOGLOBIN / MEAN CORPUSCULAR HEMOGLOBIN CONCENTRATION / MEAN CORPUSCULAR VOLUME / MONOCYTE / NEUTROPHIL / NUCLEATED RED BLOOD CELLS / PLATELET COUNT: tissue Blood; for ALANINE AMINOTRANSFERASE / ALBUMIN / ALKALINE PHOSPHATASE / ASPARTATE AMINOTRANSFERASE / BLOOD UREA NITROGEN / CARBON DIOXIDE / CHLORIDE / CHOLESTEROL / CREATINE PHOSPHOKINASE / CREATININE / GLUCOSE / LACTATE DEHYDROGENASE / LIPASE / PHOSPHORUS / POTASSIUM / SODIUM / TOTAL BILIRUBIN / TOTAL PROTEIN / URIC ACID: tissue Plasma

## CC(=O)O[C@]1(C(C)=O)CC[C@H]2[C@@H]3C=C(C)C4=CC(=O)CC[C@]4(C)[C@H]3CC[C@@]21C [MEGESTROL ACETATE]
72 h, time 3 day
  ABSOLUTE BASOPHIL: 0 CELLS/uL
  ABSOLUTE EOSINOPHIL: 84.67 CELLS/uL
  ABSOLUTE LYMPHOCYTE: 11039.33 CELLS/uL
  ABSOLUTE MONOCYTE: 40 CELLS/uL
  ABSOLUTE SEGMENTED NEUTROPHIL: 1136 CELLS/uL
  BASOPHIL: 0%
  EOSINOPHIL: 0.67%
  ERYTHROCYTE COUNT: 5.83 x10E6/uL
  HEMATOCRIT: 37.03%
  HEMOGLOBIN: 13.83 G/DL
  LEUKOCYTE COUNT: 12.3 x10E3/uL
  LYMPHOCYTE: 89.67%
  MEAN CORPUSCULAR HEMOGLOBIN: 23.77 pg
  MEAN CORPUSCULAR HEMOGLOBIN CONCENTRATION: 37.37 G/DL
  MEAN CORPUSCULAR VOLUME: 63.5 fL
  MONOCYTE: 0.33%
  NEUTROPHIL: 9.33%
  NUCLEATED RED BLOOD CELLS: 0 /100WBC
  PLATELET COUNT: 1299.33 x10E3/uL
  ALANINE AMINOTRANSFERASE: 52 u/L
  ALBUMIN: 4.43 G/DL
  ALKALINE PHOSPHATASE: 394.33 u/L
  ASPARTATE AMINOTRANSFERASE: 80.67 u/L
  BLOOD UREA NITROGEN: 16.33 mg/dL
  CARBON DIOXIDE: 25.33 mmol/L
  CHLORIDE: 103.67 MEQ/L
  CHOLESTEROL: 66.33 mg/dL
  CREATINE PHOSPHOKINASE: 195 u/L
  CREATININE: 0.25 mg/dL
  GLUCOSE: 179.67 mg/dL
  LACTATE DEHYDROGENASE: 177.33 u/L
  LIPASE: 8 u/L
  PHOSPHORUS: 13.6 mg/dL
  POTASSIUM: 6.09 MEQ/L
  SODIUM: 146.33 MEQ/L
  TOTAL BILIRUBIN: 0.27 mg/dL
  TOTAL PROTEIN: 6.43 G/DL
  URIC ACID: 1.73 mg/dL
120 h, time 5 day
  ABSOLUTE BASOPHIL: 0 CELLS/uL
  ABSOLUTE EOSINOPHIL: 115.33 CELLS/uL
  ABSOLUTE LYMPHOCYTE: 7823.33 CELLS/uL
  ABSOLUTE MONOCYTE: 0 CELLS/uL
  ABSOLUTE SEGMENTED NEUTROPHIL: 461.33 CELLS/uL
  BASOPHIL: 0%
  EOSINOPHIL: 1.33%
  ERYTHROCYTE COUNT: 5.55 x10E6/uL
  HEMATOCRIT: 36.1%
  HEMOGLOBIN: 13.53 G/DL
  LEUKOCYTE COUNT: 8.4 x10E3/uL
  LYMPHOCYTE: 93.33%
  MEAN CORPUSCULAR HEMOGLOBIN: 24.37 pg
  MEAN CORPUSCULAR HEMOGLOBIN CONCENTRATION: 37.53 G/DL
  MEAN CORPUSCULAR VOLUME: 65.03 fL
  MONOCYTE: 0%
  NEUTROPHIL: 5.33%
  NUCLEATED RED BLOOD CELLS: 0 /100WBC
  PLATELET COUNT: 1160 x10E3/uL
  ALANINE AMINOTRANSFERASE: 48.33 u/L
  ALBUMIN: 4.4 G/DL
  ALKALINE PHOSPHATASE: 429.67 u/L
  ASPARTATE AMINOTRANSFERASE: 75.33 u/L
  BLOOD UREA NITROGEN: 15 mg/dL
  CARBON DIOXIDE: 27.33 mmol/L
  CHLORIDE: 102.33 MEQ/L
  CHOLESTEROL: 63.33 mg/dL
  CREATINE PHOSPHOKINASE: 205 u/L
  CREATININE: 0.16 mg/dL
  GLUCOSE: 151.67 mg/dL
  LACTATE DEHYDROGENASE: 111.33 u/L
  LIPASE: 8.33 u/L
  PHOSPHORUS: 12.33 mg/dL
  POTASSIUM: 5.99 MEQ/L
  SODIUM: 148.33 MEQ/L
  TOTAL BILIRUBIN: 0.3 mg/dL
  TOTAL PROTEIN: 6.2 G/DL
  URIC ACID: 0.93 mg/dL
